Positions count from the first letter of the chain named. Read-outs that look alike come from different tables or passages of the source. Each block holds one compound with its values, some of them ahead of it.
What was measured:
Type in all cases: biochemical
CPT II WT [1] = target: T1, CPT II WT (Homo sapiens, UniProt P23786); assay: Determination of inhibition constant Ki for R-amino carnitine (DTNB enzyme activity assay); details: 25 °C
T1 construct: made in house; host or cells: Escherichia coli BL21Gold DE
T1 sequence (P23786 26-658): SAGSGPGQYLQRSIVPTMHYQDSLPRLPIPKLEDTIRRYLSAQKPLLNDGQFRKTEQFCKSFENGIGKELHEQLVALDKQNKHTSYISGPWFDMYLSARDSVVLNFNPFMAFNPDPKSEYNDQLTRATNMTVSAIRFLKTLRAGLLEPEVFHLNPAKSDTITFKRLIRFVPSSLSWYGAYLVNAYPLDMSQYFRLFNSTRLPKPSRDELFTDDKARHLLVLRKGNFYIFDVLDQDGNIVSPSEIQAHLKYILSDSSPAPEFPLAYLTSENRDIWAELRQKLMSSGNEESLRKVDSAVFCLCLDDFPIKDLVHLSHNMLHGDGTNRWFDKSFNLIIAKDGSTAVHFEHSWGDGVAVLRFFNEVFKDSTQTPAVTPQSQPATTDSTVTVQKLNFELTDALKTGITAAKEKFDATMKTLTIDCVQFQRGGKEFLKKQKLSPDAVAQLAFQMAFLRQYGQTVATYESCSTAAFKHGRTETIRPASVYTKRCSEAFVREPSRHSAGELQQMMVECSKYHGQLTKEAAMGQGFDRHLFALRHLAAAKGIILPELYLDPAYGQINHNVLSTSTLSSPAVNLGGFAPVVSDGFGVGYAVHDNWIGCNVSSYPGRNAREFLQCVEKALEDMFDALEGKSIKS
Experimental: (§1) Before activity measurements, the storage buffer of the enzymes was replaced with assay buffer (50 mM KH2PO4, 120 mM KCl, 1 mM EDTA-Na4) using vivaspin turbo 4 tubes (Satorius Stedim biotech GmbH, Göttingen, Germany) at 4 °C. The pH of assay buffer was adjusted with KOH to 7.4. The storage buffer was diluted at least 1:500 in assay buffer. In addition, before each experimental set up, the protein samples were centrifuged at 16,000× g for 5 min at 4 °C to remove any micro-aggregates. After that, the protein concentration was determined using bicinchoninic acid (BCA) protein assay kit (Thermo Fisher Scientific GmbH, Berlin, Germany). The enzyme activity of recombinant CPT II was performed following Rufer et al. with modifications described elsewhere. […] After pre-conditioning the mixture to 25 °C for 2 min, the reaction was started by adding 15 nM of recombinant enzyme. The reverse reaction of CPT II was detected with the enzyme activity assay. CPT II catalyzed the transfer of fatty acid residue from Pal-CoA to L-carnitine with release of CoA and Pal-carnitine. The released CoA was then detected by the reaction of the free thiol group with DTNB, forming 5-mercapto-(2-nitrobenzoic acid). This compound has a molar extinction coefficient of 13,600 M^−1 cm^−1 at a wavelength of 410 nm, and its formation was followed spectroscopically. […] The slope of the progress curve was used to determine the reaction velocity.
(§2) The inhibition constant Ki for the competitive inhibitor R-amino carnitine was determined using various concentrations (R-AC, 0, 0.25 and 0.5 mM). A concentration series of L-carnitine in the enzyme assay was used (0–200 mM) while the concentration of Pal-CoA remained constant at 30 µM. Experiments were performed at least three times independently as double determination.
(§3) The values for Ki were calculated on the basis of the obtained KM values, the Michaelis–Menten constant of the inhibited reaction KMi and the inhibitor concentration using the following equation [45]:(3) KMi=(1+[I]/ Ki)KM (4) Ki=KM·[I]/KMi−KM

CPT II variant Y479F [2] = target: T2, CPT II variant Y479F (Homo sapiens, UniProt P23786, Y479F); assay: as above; details: 25 °C
T2 construct: made in house; host or cells: Escherichia coli BL21Gold DE
T2 sequence (P23786 26-658 Y479F): T1 sequence (P23786 26-658) with Y454F
Experimental: as §1, §2, §3

CPT II variant P50H [3] = target: T3, CPT II variant P50H (Homo sapiens, UniProt P23786, P50H); assay: as above; details: 25 °C
T3 construct: made in house; host or cells: Escherichia coli BL21Gold DE
T3 sequence (P23786 26-658 P50H): T1 sequence (P23786 26-658) with P25H
Experimental: as §1, §2, §3

CPT II variant S113L [4] = target: T4, CPT II variant S113L (Homo sapiens, UniProt P23786, S113L); assay: as above; details: 25 °C
T4 construct: made in house; host or cells: Escherichia coli BL21Gold DE
T4 sequence (P23786 26-658 S113L): T1 sequence (P23786 26-658) with S88L
Experimental: as §1, §2, §3

CPT II WT [5] = target: T1, CPT II WT; assay: Determination of the kinetic parameters kcat and KM; details: palmitoyl-CoA varied, 25 °C
Experimental: as §1
(§4) It is assumed that the reaction catalyzed by CPT II represents a ping-pong mechanism or compulsory order ternary-complex mechanism.
(§5) The kinetic parameters were determined by evaluating the obtained v/S characteristic according to the Michaelis–Menten Equation (1). The […] kcat was calculated using Equation (2):(1) v=Vmax∗[S]/KM+[S] (2) kcat=Vmax/cenzyme

CPT II variant Y479F [6] = target: T2, CPT II variant Y479F; assay: as above; details: palmitoyl-CoA varied, 25 °C
Experimental: as §1, §4, §5

CPT II variant P50H [7] = target: T3, CPT II variant P50H; assay: as above; details: palmitoyl-CoA varied, 25 °C
Experimental: as §1, §4, §5

CPT II variant S113L [8] = target: T4, CPT II variant S113L; assay: as above; details: palmitoyl-CoA varied, 25 °C
Experimental: as §1, §4, §5

[9] = 0.25 mM CL, read-out: Inhibition Constant Ki in Presence of CL
[10] = absence of CL, read-out: Inhibition Constant Ki in Absence of CL

Compound: C[N+](C)(C)C[C@H](N)CC(=O)[O-] [R-amino carnitine, R-Aminocarnitine]
Ki (CPT II WT [1]; [9]): 105 ± 2 µM
Ki (CPT II WT [1]; [10]): 493 ± 4 µM
Ki (CPT II variant Y479F [2]; [9]): 108 ± 39 µM
Ki (CPT II variant Y479F [2]; [10]): 756 ± 62 µM
Ki (CPT II variant P50H [3]; [9]): 46 ± 6 µM
Ki (CPT II variant P50H [3]; [10]): 134 ± 11 µM
Ki (CPT II variant S113L [4]; [9]): 36 ± 16 µM
Ki (CPT II variant S113L [4]; [10]): 173 ± 20 µM

Km (CPT II WT [5]; 0.25 mM CL): 6.7 ± 1.1 µM
kcat (CPT II WT [5]; 0.25 mM CL): 145.3 ± 9.0 s⁻¹
Km (CPT II WT [5]; absence of CL): 7.1 ± 1.1 µM
kcat (CPT II WT [5]; absence of CL): 144.7 ± 3.1 s⁻¹
Km (CPT II variant Y479F [6]; 0.25 mM CL): 6.7 ± 0.3 µM
kcat (CPT II variant Y479F [6]; 0.25 mM CL): 144.8 ± 13 s⁻¹
Km (CPT II variant Y479F [6]; absence of CL): 5.1 ± 2.3 µM
kcat (CPT II variant Y479F [6]; absence of CL): 141.4 ± 1.7 s⁻¹
Km (CPT II variant P50H [7]; 0.25 mM CL): 6.7 ± 1.8 µM
kcat (CPT II variant P50H [7]; 0.25 mM CL): 138.2 ± 8.4 s⁻¹
Km (CPT II variant P50H [7]; absence of CL): 5.5 ± 1.4 µM
kcat (CPT II variant P50H [7]; absence of CL): 144.3 ± 18 s⁻¹
Km (CPT II variant S113L [8]; 0.25 mM CL): 12.3 ± 3 µM
kcat (CPT II variant S113L [8]; 0.25 mM CL): 145.8 ± 0.9 s⁻¹
Km (CPT II variant S113L [8]; absence of CL): 11 ± 3.6 µM
kcat (CPT II variant S113L [8]; absence of CL): 142.1 ± 25 s⁻¹
Compound: CCCCCCCCCCCCCCCC(=O)SCCNC(=O)CCNC(=O)[C@H](O)C(C)(C)COP(=O)(O)OP(=O)(O)OC[C@H]1O[C@@H](n2cnc3c(N)ncnc32)[C@H](O)[C@@H]1OP(=O)(O)O [palmitoyl-CoA, Palmitoyl-Coenzyme A]
